Where “and” joins values, the source holds several entries; their conditions need not be identical. Identical values can stand only once. Toxic doses and inconclusive results are not listed.
Tested on: P388 leukemia ip, CD2F1 mice, survival T/C
Test: NCI In Vivo Anticancer Drug Screen. Data for tumor model P388 Leukemia (intraperitoneal) in CD2F1 (CDF1) mice
Settings: endpoint: median survival time, higher = longer survival
Procedure, shortened: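 Mice carrying the transplanted tumor received test compound or vehicle. Survival was recorded in each group, and the value is the treated-group measurement divided by that of the vehicle-treated control group.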

[1] = dose: 50.0 mg/kg/injection, schedule: Q01DX005 (ip), vehicle: Klucel (hydroxypropylcellulose) (HPC)
[2] = dose: 100.0 mg/kg/injection, schedule: Q01DX005 (ip), vehicle: Klucel (hydroxypropylcellulose) (HPC)
[3] = dose: 200.0 mg/kg/injection, schedule: Q01DX005 (ip), vehicle: Klucel (hydroxypropylcellulose) (HPC)
[4] = dose: 50.0 mg/kg/injection, schedule: Q01DX009 (ip), vehicle: Klucel (hydroxypropylcellulose) (HPC)
[5] = dose: 100.0 mg/kg/injection, schedule: Q01DX009 (ip), vehicle: Klucel (hydroxypropylcellulose) (HPC)
[6] = dose: 100.0 mg/kg/injection, schedule: Q01DX009 (ip), vehicle: saline with Tween-80
[7] = dose: 200.0 mg/kg/injection, schedule: Q01DX009 (ip), vehicle: saline with Tween-80
[8] = dose: 25.0 mg/kg/injection, schedule: Q01DX009 (ip), vehicle: Klucel (hydroxypropylcellulose) (HPC)
[9] = dose: 60.0 mg/kg/injection, schedule: Q01DX005 (ip), vehicle: saline with Tween-80
[10] = dose: 120.0 mg/kg/injection, schedule: Q01DX005 (ip), vehicle: saline with Tween-80
[11] = dose: 240.0 mg/kg/injection, schedule: Q01DX005 (ip), vehicle: saline with Tween-80
[12] = dose: 100.0 mg/kg/injection, schedule: Q01DX001 (ip), vehicle: Klucel (hydroxypropylcellulose) (HPC)
[13] = dose: 200.0 mg/kg/injection, schedule: Q01DX001 (ip), vehicle: Klucel (hydroxypropylcellulose) (HPC)
[14] = dose: 400.0 mg/kg/injection, schedule: Q01DX001 (ip), vehicle: Klucel (hydroxypropylcellulose) (HPC)
[15] = dose: 50.0 mg/kg/injection, schedule: Q01DX005 (ip), vehicle: saline with Tween-80
[16] = dose: 100.0 mg/kg/injection, schedule: Q01DX005 (ip), vehicle: saline with Tween-80
[17] = dose: 200.0 mg/kg/injection, schedule: Q01DX005 (ip), vehicle: saline with Tween-80

With `O=C(O)C(CCCCNC(=S)S)NC(=S)S.[Zn+2]` (stereo not drawn) the T/C [1] was 95 % of control and the T/C [2] was 95 % of control.

In the case of `COc1ccc(N2CCN(/C=C3\Cc4ccc(F)cc4C3=O)CC2)cc1`, the T/C (dose: 100.0 mg/kg/injection, schedule: Q04DX002 (ip), vehicle: Klucel (hydroxypropylcellulose) (HPC)) is reported as 103 % of control, the T/C (dose: 200.0 mg/kg/injection, schedule: Q04DX002 (ip), vehicle: Klucel (hydroxypropylcellulose) (HPC)) is reported as 99 % of control and the T/C (dose: 400.0 mg/kg/injection, schedule: Q04DX002 (ip), vehicle: Klucel (hydroxypropylcellulose) (HPC)) is reported as 95 % of control.

In the case of `Cn1cnc([N+](=O)[O-])c1Sc1ncccc1C(=O)O`, the T/C [1] is reported as 112 % of control, the T/C [2] is reported as 114 % of control and the T/C [3] is reported as 105 % of control.

With `CC(C)N1CCC(Oc2ccc3ccccc3n2)C1` (stereo not drawn) the T/C [4] was 100 % of control and the T/C [5] was 91 % of control.

`CN(C)c1ccc(C=C2c3ccccc3C(=O)c3ccccc32)c(Cl)c1` was tested, and the T/C (dose: 50.0 mg/kg/injection, schedule: Q01DX009 (ip), vehicle: saline with Tween-80) was 100 % of control, the T/C [6] was 91 % of control and the T/C [7] was 94 % of control.

With `O=C[O-].[NH2-].[NH2-].[NH2-].[NH2-].[NH2-].[O-][Cl+3]([O-])([O-])O.[Ru+8]` the T/C (dose: 1.56 mg/kg/injection, schedule: Q04DX003 (ip), vehicle: saline) was 105 % of control, the T/C (dose: 3.13 mg/kg/injection, schedule: Q04DX003 (ip), vehicle: saline) was 104 % of control and the T/C (dose: 6.25 mg/kg/injection, schedule: Q04DX003 (ip), vehicle: saline) was 124 % of control.

With `COc1ccncc1CCc1cnccc1OC` the T/C (dose: 100.0 mg/kg/injection, schedule: Q04DX003 (ip), vehicle: saline) was 99 % of control, the T/C (dose: 200.0 mg/kg/injection, schedule: Q04DX003 (ip), vehicle: saline) was 93 % of control and the T/C (dose: 400.0 mg/kg/injection, schedule: Q04DX003 (ip), vehicle: saline) was 90 % of control.

In the case of `COc1ccc(CSC(=S)Nc2ccc(Cl)c(Cl)c2)cc1`, the T/C (dose: 12.5 mg/kg/injection, schedule: Q01DX009 (ip), vehicle: Klucel (hydroxypropylcellulose) (HPC)) is reported as 111 % of control, the T/C [8] is reported as 120 % of control and the T/C [4] is reported as 120 % of control and 121 % of control. The T/C [5] was 111 % of control.

For `Cc1c2ccccc2c(CSC(=N)N)c2ccccc12`, the T/C (dose: 0.44 mg/kg/injection, schedule: Q01DX009 (ip), vehicle: saline) was 110 % of control, the T/C (dose: 0.66 mg/kg/injection, schedule: Q01DX009 (ip), vehicle: saline) was 110 % of control and the T/C (dose: 1.0 mg/kg/injection, schedule: Q01DX009 (ip), vehicle: saline) was 110 % of control. For the same compound, the T/C (dose: 1.47 mg/kg/injection, schedule: Q01DX009 (ip), vehicle: saline) was 160 % of control, the T/C (dose: 1.5 mg/kg/injection, schedule: Q01DX009 (ip), vehicle: saline) was 105 % of control and 120 % of control and the T/C (dose: 2.2 mg/kg/injection, schedule: Q01DX009 (ip), vehicle: saline) was 160 % of control. The T/C (dose: 3.3 mg/kg/injection, schedule: Q01DX009 (ip), vehicle: saline) was 165 % of control and the T/C (dose: 5.0 mg/kg/injection, schedule: Q01DX009 (ip), vehicle: saline) was 150 % of control and 185 % of control.

For `S=C(Nc1ccc(N=Nc2ccccc2)cc1)SCc1ccc2c(c1)OCO2`, the T/C (dose: 50.0 mg/kg/injection, schedule: Q01DX009 (ip), vehicle: suspension in saline) was 96 % of control, the T/C (dose: 100.0 mg/kg/injection, schedule: Q01DX009 (ip), vehicle: suspension in saline) was 90 % of control and the T/C (dose: 200.0 mg/kg/injection, schedule: Q01DX009 (ip), vehicle: suspension in saline) was 92 % of control.

With `NC1(C(=O)O)CCCC1.O.[Cl][Au]` the T/C [9] was 110 % of control.

For `Cc1c(Cc2c(C)n(C)n(-c3ccccc3)c2=O)c(=O)n(-c2ccccc2)n1C`, the T/C [8] was 100 % of control and 103 % of control, the T/C [4] was 106 % of control and 89 % of control and the T/C [5] was 99 % of control and 88 % of control.

In the case of `O=C(Nc1cccc(S(=O)(=O)F)c1)Oc1ccc([N+](=O)[O-])cc1`, the T/C [9] is reported as 113 % of control, the T/C [10] is reported as 111 % of control and the T/C [11] is reported as 93 % of control.

In the case of `CSC(=S)n1nc(C)c(N=Nc2ccccc2[N+](=O)[O-])c1C`, the T/C [12] is reported as 111 % of control, the T/C [13] is reported as 96 % of control and the T/C [14] is reported as 106 % of control.

With `COCCCN1CNC(=S)NC1` the T/C [15] was 101 % of control, the T/C [16] was 100 % of control and the T/C [17] was 101 % of control.

For `Cc1ccc(N=NC2=C3Sc4ccccc4N=C2N(c2ccc(Br)cc2)C(=S)N3c2ccc(Cl)cc2)cc1`, the T/C [15] was 102 % of control, the T/C [16] was 90 % of control and the T/C [17] was 88 % of control.

In the case of `CC(C)n1cc(C(C)(C)C)nc1SSc1nc(C(C)(C)C)cn1C(C)C`, the T/C [1] is reported as 100 % of control and the T/C [2] is reported as 96 % of control.

With `CC(C)(C)OC(=O)NC(Cc1ccc(O)cc1)C(=O)O` (stereo not drawn) the T/C [1] was 102 % of control, the T/C [2] was 103 % of control and the T/C [3] was 96 % of control.

For `CSC(=S)NN=C(c1ccccn1)c1ccccn1`, the T/C (dose: 6.25 mg/kg/injection, schedule: Q01DX009 (ip), vehicle: saline with Tween-80) was 96 % of control, the T/C (dose: 12.5 mg/kg/injection, schedule: Q01DX009 (ip), vehicle: saline with Tween-80) was 99 % of control and the T/C (dose: 25.0 mg/kg/injection, schedule: Q01DX009 (ip), vehicle: saline with Tween-80) was 92 % of control. For the same compound, the T/C [6] was 91 % of control and the T/C [7] was 88 % of control.

`COC1=CC2CCN3C=C(C#N)C(C#N)CC3C2C=C1OC` (stereo not drawn) was tested, and the T/C [15] was 95 % of control, the T/C [16] was 111 % of control and the T/C [17] was 111 % of control.

`NC(=S)N/N=C/c1c(-c2ccccc2)nc2n1CCS2` was tested, and the T/C [12] was 100 % of control, the T/C [13] was 104 % of control and the T/C [14] was 109 % of control.

`NC(Cc1ccc(N(CCCl)CCCl)cc1)C(=O)O` (stereo not drawn) was tested, and the T/C (dose: 3.12 mg/kg/injection, schedule: Q01DX009 (ip), vehicle: Klucel (hydroxypropylcellulose) (HPC)) was 285 % of control and 309 % of control and the T/C (dose: 6.25 mg/kg/injection, schedule: Q01DX009 (ip), vehicle: Klucel (hydroxypropylcellulose) (HPC)) was 99 % of control and 105 % of control and 117 % of control.

In the case of `O=C(NCCCl)N1CCC(CN=c2cc3n(-c4ccc(Cl)cc4)c4ccccc4nc-3cc2Nc2ccc(Cl)cc2)CC1`, the T/C (dose: 7.5 mg/kg/injection, schedule: Q01DX005 (ip), vehicle: saline with Tween-80) is reported as 88 % of control, the T/C (dose: 15.0 mg/kg/injection, schedule: Q01DX005 (ip), vehicle: saline with Tween-80) is reported as 88 % of control and the T/C [10] is reported as 94 % of control. The T/C [11] was 97 % of control.

With `CC(=O)C1=C(O)C2(C)c3c(O)c(C)c(O)c(C(C)=O)c3OC2CC1=O` (stereo not drawn) the T/C (dose: 6.25 mg/kg/injection, schedule: Q01DX009 (ip), vehicle: gum acacia) was 100 % of control and 106 % of control, the T/C (dose: 12.5 mg/kg/injection, schedule: Q01DX009 (ip), vehicle: gum acacia) was 103 % of control and 108 % of control and the T/C (dose: 25.0 mg/kg/injection, schedule: Q01DX009 (ip), vehicle: gum acacia) was 108 % of control and 110 % of control. The T/C (dose: 50.0 mg/kg/injection, schedule: Q01DX009 (ip), vehicle: gum acacia) was 108 % of control and 110 % of control.

For `BrC[Si](CBr)(c1ccccc1)c1ccccc1`, the T/C (dose: 12.5 mg/kg/injection, schedule: Q01DX009 (ip), vehicle: saline) was 106 % of control, the T/C (dose: 25.0 mg/kg/injection, schedule: Q01DX009 (ip), vehicle: saline) was 106 % of control and the T/C (dose: 50.0 mg/kg/injection, schedule: Q01DX009 (ip), vehicle: saline) was 99 % of control and 92 % of control.

For `O=C(O)c1cc(N=Nc2ccc(-c3ccc(N=Nc4c(S(=O)(=O)O)cc5cc(Nc6ccccc6)ccc5c4O)cc3)cc2)ccc1O`, the T/C (dose: 50.0 mg/kg/injection, schedule: Q01DX005 (ip), vehicle: saline) was 107 % of control, the T/C (dose: 100.0 mg/kg/injection, schedule: Q01DX005 (ip), vehicle: saline) was 114 % of control and the T/C (dose: 200.0 mg/kg/injection, schedule: Q01DX005 (ip), vehicle: saline) was 112 % of control.

For `CCN1/C(=C/C2=C([O-])C(=C\c3ccc4ccccc4[n+]3CC)/C2=O)C=Cc2ccccc21`, the T/C (dose: 60.0 mg/kg/injection, schedule: Q01DX005 (ip), vehicle: Klucel (hydroxypropylcellulose) (HPC)) was 101 % of control, the T/C (dose: 120.0 mg/kg/injection, schedule: Q01DX005 (ip), vehicle: Klucel (hydroxypropylcellulose) (HPC)) was 97 % of control and the T/C (dose: 240.0 mg/kg/injection, schedule: Q01DX005 (ip), vehicle: Klucel (hydroxypropylcellulose) (HPC)) was 86 % of control.

With `O=C(Oc1ccccc1)N1CCCC(O)C1` (stereo not drawn) the T/C [4] was 96 % of control, the T/C [5] was 105 % of control and the T/C (dose: 200.0 mg/kg/injection, schedule: Q01DX009 (ip), vehicle: Klucel (hydroxypropylcellulose) (HPC)) was 100 % of control.

Source: PubChem BioAssay AID330 (DTP/NCI, 2004)
